Reference: US20230383129A1, “ANTIFOULING COMPOUNDS” (I-Tech AB, priority 2020, published 2023)

Key:
[1] = Stability/hydrolysis of monomers in ethanol and PBS buffer followed by TLC (Setup 1); type: physicochemical; conditions: after two weeks
Procedure: The stability of the carbamate-(M3), urea-(M4) and sulfonylderivative of medetomidine (M2 and M0) were studied in ethanol and phosphate-buffered saline (PBS) buffer. Thin-layer chromatography (TLC) was used to follow the decomposition of the derivatives to free medetomidine. It took approximately two weeks until most of the derivatives stored at room temperature to decompose. If the storage temperature was +6° C. no decomposition was observed.
Nine vials were prepared. Vial 1 contained reference compound medetomidine dissolved in ethanol (1 ml). Substance M2 (25 mg) was added to vial 2 and 3. Substance M3 (25 mg) was added to vial 4 and 5. Substance M4 (25 mg) was added to vial 6 and 7 and substance M0 was added to vial 8 and 9. The solid material in vials 2 to 9 were dissolved in ethanol (1 ml) and PBS buffer pH 7.4 (1 ml) to mimic sea water containing different salts and having a pH slightly basic. Ethanol was chosen as solvent to increase the solubility of the substances. During the study vial 1, 3, 5, 7 and 9 were stored at room temperature, whereas vial 2, 4, 6 and 8 were stored in a refrigerator at +6° C. Stability of the compounds was studied after 0, 1, 2, 5, 6, 9, 13 and 15 days using TLC and dichloromethane—methanol (95-5) as eluent.

[2] = Release of I from monomers into artificial seawater, LC-MS (Setup 2); type: physicochemical; conditions: for Concentration of I released: artificial seawater 3% NaCl pH 8.0, ambient temperature; for Concentration of I (near constant over the study): artificial seawater, days 10-25
Procedure: The stability of M1 and M4 was evaluated via quantification of the release of I into artificial seawater (3% NaCl, pH 8.0). For the experiments, compound M1 (0.023 g) was suspended in 5 mL artificial seawater, while M4 (0.044 g) were suspended in 10 mL artificial seawater. The solutions were stirred (300 rpm) at ambient temperatures and samples were collected at 10, 15, 20 and 25 days. The samples were stored in freezer 2-2.5 months prior to LC-MS analysis.
Samples from the release studies were analyzed using LC-MS. The LC-MS system was composed of an Acquity I-class UPLC with a Waters Xevo G2-S Qtof. The chromatographic separation was obtained on a C18 column with gradient elution (Eluent A, 0.1% NH4 in MQ-water and Eluent B, 100% acetonitrile). The samples (from freezer) were extracted with hexane and the organic extracts were analyzed by LC-MS. Three external calibration curves for I, M1 and M4 were prepared the same way as the samples and used for quantification.

[3] = test system: barnacle cyprid larva; conditions: barnacles; cited from earlier work
[4] = ethanol/PBS buffer pH 7.4, refrigerator +6° C.
[5] = ethanol/PBS buffer pH 7.4, room temperature

## C=CCS(=O)(=O)n1cnc(C(C)c2cccc(C)c2C)c1 (stereo not drawn) [Compound M2, 4-[1-(2,3-dimethylphenyl)ethyl]-1-(prop-2-ene-1-sulfonyl)-1H-imidazole]
[1]; [4]
  decomposition to free medetomidine (TLC): mixture of medetomidine and the starting material
[1]; [5]
  decomposition to free medetomidine (TLC): only medetomidine

## C=CCNC(=O)n1cnc(C(C)c2cccc(C)c2C)c1 (stereo not drawn) [Compound M4, 4-[1-(2,3-dimethylphenyl)ethyl]-N-(prop-2-en-1-yl)-1H-imidazole-1-carboxamide]
[1]; [4]
  decomposition to free medetomidine (TLC): stable
[1]; [5]
  decomposition to free medetomidine (TLC): decomposition to medetomidine as well as non-hydrolyzed M4
[2]; incubation 10 days
  Concentration of I released: 5028.9 ng/mL
[2]; incubation 15 days
  Concentration of I released: 5592.2 ng/mL
[2]; incubation 20 days
  Concentration of I released: 5078.0 ng/mL
[2]
  Concentration of I (near constant over the study): ~5000 ng/mL

## Cc1cccc(C(C)c2c[nH]cn2)c1C (racemic) [medetomidine, (±)-4-[1-(2,3-dimethylphenyl)ethyl)-1H-imidazole]
[3]
  concentration impeding larval settlement: 1 to 10 nM

## C=C(C)C(=O)n1cnc(C(C)c2cccc(C)c2C)c1 (stereo not drawn) [Compound M1, 1-{4-[1-(2,3-dimethylphenyl)ethyl]-1H-imidazol-1-yl}-2-methylprop-2-en-1-one]
[2]; incubation 10 days
  Concentration of I released: 9330.0 ng/mL
[2]; incubation 15 days
  Concentration of I released: 9905.8 ng/mL
[2]; incubation 20 days
  Concentration of I released: 9748.8 ng/mL
[2]; incubation 25 days
  Concentration of I released: 9820.4 ng/mL
[2]
  Concentration of I (near constant over the study): ~9000 ng/mL

## Cc1cccc(C(C)c2cn(S(C)(=O)=O)cn2)c1C (stereo not drawn) [Compound M0, 4-[1-(2,3-dimethylphenyl)ethyl]-1-(methanesulfonyl)-1H-imidazole]
[1]; [4]
  decomposition to free medetomidine (TLC): stable
[1]; [5]
  decomposition to free medetomidine (TLC): stable

## C=CCOC(=O)n1cnc(C(C)c2cccc(C)c2C)c1 (stereo not drawn) [Compound M3, prop-2-en-1-yl 4-[1-(2,3-dimethylphenyl)ethyl]-1H-imidazole-1-carboxylate]
[1]; [4]
  decomposition to free medetomidine (TLC): mixture of medetomidine and the starting material
[1]; [5]
  decomposition to free medetomidine (TLC): only medetomidine
